Laboratory results from US9999220B2, “Method for repelling rodents” (Arkion Life Sciences, LLC, priority 2014, dated 2018).

How the values were obtained:
[1] = system: black-tailed prairie dogs; experiment: Concentration-response repellency experiment, treated whole corn, black-tailed prairie dogs; assay type: in vivo, Cynomys ludovicianus; details: black-tailed prairie dogs offered corn seeds treated with 0.5-4% anthraquinone (target concentrations), 1-day test
Text: (§1) These values can also be used to form ranges, such as, for example, from about 15% to about 85% repellency, with preferred ranges for particular rodent families ranging from about 20-50%; 25-40%; 40-55%; and 55-85%. The percent repellency is based on the percentage of the treated item which is not consumed by the animal.
(§2) We conducted a concentration-response experiment with an anthraquinone-based repellent (Avipel®, a.i. 50% 9,10-anthraquinone; Arkion Life Sciences, New Castle, Del.) to determine anthraquinone repellency for black-tailed prairie dogs (Cynomys ludovicianus, N=44 males and females; Werner et al. 2011). During a 3-day pre-test, we offered one bowl (untreated whole corn) in individual cages at 08:00 h, daily. […] We randomly assigned repellent treatments among groups. During the 1-day test, we offered one bowl (repellent-treated whole corn) at 08:00 h. Consumption of treated corn seeds was measured (±0.1 g) at 08:00 h on the day subsequent to the test.
We observed 24-37% repellency (FIG. 1) during our concentration-response experiment with black-tailed prairie dogs offered corn seeds treated with 0.5-4% anthraquinone (target concentrations; Werner et al. 2011).

[2] = system: California voles; experiment: Concentration-response repellency experiment, treated whole oats, California voles; assay type: in vivo, Microtus californicus; details: California voles offered oats treated with 0.5-2% anthraquinone (target concentrations), 1-day test
Text: as §1
as §2, with “California (Microtus californicus, N=30” for “black-tailed prairie dogs (Cynomys ludovicianus, N=44”, “females).” for “females; Werner et al. 2011).”, “oats)” for “corn)”, “oats” for “corn seeds”
We observed 58-84% repellency (FIG. 2) during our concentration-response experiment with California voles offered oats treated with 0.5-2% anthraquinone (target concentrations).

[3] = system: Richardson's ground squirrels; experiment: Concentration-response repellency experiment, treated whole oats, Richardson's ground squirrels; assay type: in vivo, Urocitellus richardsonii; details: Richardson's ground squirrels offered oats treated with 0.5-2% anthraquinone (target concentrations), 1-day test
Text: as §1
as §2, with “a.i.50%” for “a.i. 50%”, “Richardson's ground squirrels (Urocitellus richardsonii, N=28” for “black-tailed prairie dogs (Cynomys ludovicianus, N=44”, “females).” for “females; Werner et al. 2011).”, “oats)” for “corn)”, “oats” for “corn seeds”
We observed 40-56% repellency (FIG. 3) during our concentration-response experiment with Richardson's ground squirrels offered oats treated with 0.5-2% anthraquinone (target concentrations).

[4] = system: Sprague-Dawley rats; experiment: 13-week single-choice feeding study in Sprague-Dawley rats (rat repellency example); assay type: in vivo; details: for Body Weight Day 1: Day 1, mean ± SD; for Body Weight Week 3: Week 3, mean ± SD; for Body Weight Week 7: Week 7, mean ± SD; for Body Weight Week 13: Week 13, mean ± SD; for Total Weight Gain % difference from control / Total Weight Gain: over 13 weeks; for Total Weight Gain: mean ± SD
Procedure: Anthraquinone is not a classic toxicant but a feeding study on Sprague-Dawley rats was done to determine effects of long term feeding where there was a single choice offered to rats over a 13 week period.
Anthraquinones was administered to four groups of 10 male and 10 female Sprague-Dawley rats/group at concentrations of 0, 500, 2000, or 7500 ppm (0, 40, 125, or 495 mg/kg/day in males; 0, 44, 150, or 661 mg/kg/day in females) for 4 consecutive weeks. Beginning with Week 5, the 500 ppm diet was reduced to 200 ppm resulting in lowering the doses to 11 and 16 mg/kg/day for males and females, respectively, through the end of the 13-week experimental period.
Significant reduction in feeding with a single choice indicates a non-lethal repellency.

[5] = system: deer mice; experiment: Concentration-response repellency experiment, treated whole oats, deer mice; assay type: in vivo, Peromyscus maniculatus; details: deer mice offered oats treated with 0.25-2% anthraquinone (target concentrations), 1-day test
Procedure: During a 3-day pre-test, we offered one bowl (untreated whole oats) in individual cages at 08:00 h, daily. […] We randomly assigned repellent treatments among groups. During the 1-day test, we offered one bowl (repellent-treated whole oats) at 08:00 h. Consumption of treated oats was measured (±0.1 g) at 08:00 h on the day subsequent to the test.

[6] = females, 500 ppm diet (200 ppm from Week 5)
[7] = males, 500 ppm diet (200 ppm from Week 5)

`O=C1c2ccccc2C(=O)c2ccccc21` [anthraquinone, 9,10-anthraquinone] was tested, and the repellency [1] was 24-37%, the repellency [2] was 58-84% and the repellency [3] was 40-56%. The “repellency observed (lack of weight gain from inhibited feeding)” value ([4]; 500 ppm in diet, single choice, 13 weeks) was “some repellency was observed”, the “Body Weight Day 1” value [4, 6] was 185 ± 12.2 G and the “Body Weight Week 3” value [4, 6] was 223 ± 12.4 G. For the same compound, the “Body Weight Week 7” value [4, 6] was 254 ± 14.2 G, the “Body Weight Week 13” value [4, 6] was 274 ± 15.0 G and the “Total Weight Gain % difference from control” value (“Total Weight Gain % difference” for short) [4, 6] was −27%. For the same compound, the “Total Weight Gain” value [4, 6] was 89 ± 10.1 Grams, the “Body Weight Day 1” value ([4]; females, 2000 ppm diet) was 188 ± 14.6 G and the “Body Weight Week 3” value ([4]; females, 2000 ppm diet) was 212 ± 14.2 G. For the same compound, the “Body Weight Week 7” value ([4]; females, 2000 ppm diet) was 238 ± 11.7 G, the “Body Weight Week 13” value ([4]; females, 2000 ppm diet) was 247 ± 16.3 G and the “Total Weight Gain % difference” value ([4]; females, 2000 ppm diet) was −51%. The “Total Weight Gain” value ([4]; females, 2000 ppm diet) was 59 ± 9.2 Grams, the “Body Weight Day 1” value ([4]; females, 7500 ppm diet) was 189 ± 11.8 G and the “Body Weight Week 3” value ([4]; females, 7500 ppm diet) was 204 ± 22.0 G. For the same compound, the “Body Weight Week 7” value ([4]; females, 7500 ppm diet) was 226 ± 26.3 G, the “Body Weight Week 13” value ([4]; females, 7500 ppm diet) was 217 ± 27.7 G and the “Total Weight Gain % difference” value ([4]; females, 7500 ppm diet) was −76%. For the same compound, the “Total Weight Gain” value ([4]; females, 7500 ppm diet) was 29 ± 28.2 Grams, the “Body Weight Day 1” value [4, 7] was 252 ± 14.5 G and the “Body Weight Week 3” value [4, 7] was 379 ± 26.4 G. For the same compound, the “Body Weight Week 7” value [4, 7] was 471 ± 39.4 G, the “Body Weight Week 13” value [4, 7] was 528 ± 47.4 G and the “Total Weight Gain % difference” value [4, 7] was −11%. The “Total Weight Gain” value [4, 7] was 275 ± 38.7 Grams, the “Body Weight Day 1” value ([4]; males, 2000 ppm diet) was 250 ± 13.5 G and the “Body Weight Week 3” value ([4]; males, 2000 ppm diet) was 359 ± 23.7 G. For the same compound, the “Body Weight Week 7” value ([4]; males, 2000 ppm diet) was 443 ± 36.9 G, the “Body Weight Week 13” value ([4]; males, 2000 ppm diet) was 498 ± 43.0 G and the “Total Weight Gain % difference” value ([4]; males, 2000 ppm diet) was −20%. The “Total Weight Gain” value ([4]; males, 2000 ppm diet) was 247 ± 37.1 Grams, the “Body Weight Day 1” value ([4]; males, 7500 ppm diet) was 250 ± 10.1 G and the “Body Weight Week 3” value ([4]; males, 7500 ppm diet) was 342 ± 20.2 G. The “Body Weight Week 7” value ([4]; males, 7500 ppm diet) was 425 ± 28.7 G, the “Body Weight Week 13” value ([4]; males, 7500 ppm diet) was 470 ± 37.9 G and the “Total Weight Gain % difference” value ([4]; males, 7500 ppm diet) was −28%. For the same compound, the “Total Weight Gain” value ([4]; males, 7500 ppm diet) was 221 ± 34.0 Grams, the “dietary concentration at which effective repellency began” value ([4]; single choice diet, 13 weeks) was “approximately 2000 ppm” and the repellency [5] was 19-52%.
